Columns and labels:
[1] = system: class I HDACs in HEL cells; details: Boc-Lys (acetyl)-AMC substrate, n ≥ 2
[2] = system: class IIa HDACs in HEL cells; details: Boc-Lys (triflouroacetyl)-AMC substrate, n ≥ 2

| SMILES | HDAC class I cellular IC50 [1] | HDAC class IIa cellular IC50 [2] |
| --- | --- | --- |
| Nc1ccc(-c2cccs2)cc1NC(=O)c1ccc(CNC(=O)CN2C(=O)C3(OCCCO3)c3cc(Cl)ccc32)cc1 [23a, N-(2-Amino-5-(thiophen-2-yl)phenyl)-4-((2-(5-chloro-2-oxospiro[indoline-3,2′-[1,3]dioxan]-1-yl)acetamido)methyl)benza-mide] | not active | not active |
| Nc1ccccc1NC(=O)c1ccc(NC(=O)CN2C(=O)C3(OCCCO3)c3cc(Br)ccc32)cc1 [9a, N-(2-aminophenyl)-4-(2-(5-bromo-2-oxospiro[indoline-3,2′-[1,3]dioxan]-1-yl)acetamido)ben-zamide] | not active | not active |
